The target in one test is PI3Kdelta (Homo sapiens (Human), UniProt O00329). Kind of test: HTRF PI3K biochemical assay, delta isoform. The settings on record: 0.3 nM enzyme, 100 uM ATP, 50 uM PIP2; form screened (neutral or TFA salt). The method, then:
(§1) HTRF PI3K Biochemical Assay to Measure Intrinsic Potency of Compound Inhibitors
(§2) This loss of signal is nonlinear with respect to both increasing product and time. This non-linear detection will impact accuracy of IC50 calculations; therefore, there is a need for a correction factor to obtain more accurate IC50 values. This correction is derived from a PIP3 standard curve run in a separate assay plate. All data were calculated using the ratio of acceptor (APC) to donor (Europium) fluorescence in each well of the assay plate. […] An IC50 was then calculated fitting the % inhibition data to the equation: % inhibition=min+(Max−min)/1+([inhibitor]/IC50)^n) where min is the % inhibition with inhibitor, max is the signal in DMSO control, and n is the Hill slope.
(§3) The biological data was collected using the methodology described above.
Background: In TR-FRET formats the signal depends on donor and acceptor labels being close together.

The target in another test is PI3Kalpha (Homo sapiens (Human), UniProt P42336). Kind of test: HTRF PI3K biochemical assay, alpha isoform (selectivity versus delta). The conditions noted are these: ratio PI3K-alpha IC50 value/PI3K-delta IC50 value. The protocol:
as §1, §2, §3
The determination of relative selectivity for a given compound is defined as the relative ratio of the (PI3K-alphaIC50 value/PI3K-delta IC50 value).

Molecules are shown by their SMILES.

Chain of PI3Kdelta (O00329 whole entry, canonical isoform): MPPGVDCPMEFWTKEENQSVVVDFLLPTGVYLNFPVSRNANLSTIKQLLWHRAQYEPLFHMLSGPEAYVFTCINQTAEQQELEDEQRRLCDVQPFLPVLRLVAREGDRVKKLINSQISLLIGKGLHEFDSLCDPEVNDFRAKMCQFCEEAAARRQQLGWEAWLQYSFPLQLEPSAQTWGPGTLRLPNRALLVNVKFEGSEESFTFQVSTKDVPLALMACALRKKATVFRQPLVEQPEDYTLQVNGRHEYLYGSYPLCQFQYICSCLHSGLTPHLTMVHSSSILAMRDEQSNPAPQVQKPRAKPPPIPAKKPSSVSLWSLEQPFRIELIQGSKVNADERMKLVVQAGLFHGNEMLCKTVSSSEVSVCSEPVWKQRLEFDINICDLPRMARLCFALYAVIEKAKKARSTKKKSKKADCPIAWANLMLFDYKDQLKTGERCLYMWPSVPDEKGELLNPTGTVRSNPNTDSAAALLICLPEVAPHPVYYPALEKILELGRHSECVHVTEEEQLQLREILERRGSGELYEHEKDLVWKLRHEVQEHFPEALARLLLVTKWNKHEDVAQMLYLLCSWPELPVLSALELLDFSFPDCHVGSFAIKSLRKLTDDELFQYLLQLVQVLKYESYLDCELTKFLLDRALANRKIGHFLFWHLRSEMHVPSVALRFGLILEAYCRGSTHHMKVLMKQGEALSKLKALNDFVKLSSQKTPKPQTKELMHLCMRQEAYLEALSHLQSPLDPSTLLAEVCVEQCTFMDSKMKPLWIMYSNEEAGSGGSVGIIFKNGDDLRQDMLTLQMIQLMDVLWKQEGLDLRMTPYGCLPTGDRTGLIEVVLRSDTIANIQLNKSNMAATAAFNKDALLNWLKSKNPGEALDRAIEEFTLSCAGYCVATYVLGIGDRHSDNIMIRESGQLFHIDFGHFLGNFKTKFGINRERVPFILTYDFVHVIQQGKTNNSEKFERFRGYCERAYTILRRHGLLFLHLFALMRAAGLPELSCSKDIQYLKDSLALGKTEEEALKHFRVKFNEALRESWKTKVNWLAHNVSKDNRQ
Chain of PI3Kdelta (P27986 whole entry partner, canonical isoform): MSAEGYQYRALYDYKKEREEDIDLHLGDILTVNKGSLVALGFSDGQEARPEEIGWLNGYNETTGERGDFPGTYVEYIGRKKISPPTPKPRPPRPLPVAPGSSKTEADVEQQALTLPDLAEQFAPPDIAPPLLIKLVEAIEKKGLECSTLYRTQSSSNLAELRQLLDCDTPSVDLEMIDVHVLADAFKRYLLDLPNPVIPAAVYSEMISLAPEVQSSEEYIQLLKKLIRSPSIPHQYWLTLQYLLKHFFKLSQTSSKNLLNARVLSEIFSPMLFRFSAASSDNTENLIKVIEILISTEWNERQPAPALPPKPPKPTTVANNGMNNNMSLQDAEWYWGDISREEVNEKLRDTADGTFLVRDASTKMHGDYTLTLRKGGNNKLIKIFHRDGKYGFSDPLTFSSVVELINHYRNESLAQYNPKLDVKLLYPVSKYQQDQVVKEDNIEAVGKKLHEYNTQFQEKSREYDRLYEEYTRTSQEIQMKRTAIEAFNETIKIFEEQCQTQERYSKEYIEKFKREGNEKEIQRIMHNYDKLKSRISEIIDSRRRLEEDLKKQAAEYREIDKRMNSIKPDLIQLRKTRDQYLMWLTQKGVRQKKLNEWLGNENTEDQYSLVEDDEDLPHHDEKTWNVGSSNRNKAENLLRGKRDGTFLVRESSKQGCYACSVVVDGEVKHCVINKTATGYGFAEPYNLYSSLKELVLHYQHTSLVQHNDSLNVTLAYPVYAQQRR
Chain of PI3Kalpha (P42336 whole entry, canonical isoform): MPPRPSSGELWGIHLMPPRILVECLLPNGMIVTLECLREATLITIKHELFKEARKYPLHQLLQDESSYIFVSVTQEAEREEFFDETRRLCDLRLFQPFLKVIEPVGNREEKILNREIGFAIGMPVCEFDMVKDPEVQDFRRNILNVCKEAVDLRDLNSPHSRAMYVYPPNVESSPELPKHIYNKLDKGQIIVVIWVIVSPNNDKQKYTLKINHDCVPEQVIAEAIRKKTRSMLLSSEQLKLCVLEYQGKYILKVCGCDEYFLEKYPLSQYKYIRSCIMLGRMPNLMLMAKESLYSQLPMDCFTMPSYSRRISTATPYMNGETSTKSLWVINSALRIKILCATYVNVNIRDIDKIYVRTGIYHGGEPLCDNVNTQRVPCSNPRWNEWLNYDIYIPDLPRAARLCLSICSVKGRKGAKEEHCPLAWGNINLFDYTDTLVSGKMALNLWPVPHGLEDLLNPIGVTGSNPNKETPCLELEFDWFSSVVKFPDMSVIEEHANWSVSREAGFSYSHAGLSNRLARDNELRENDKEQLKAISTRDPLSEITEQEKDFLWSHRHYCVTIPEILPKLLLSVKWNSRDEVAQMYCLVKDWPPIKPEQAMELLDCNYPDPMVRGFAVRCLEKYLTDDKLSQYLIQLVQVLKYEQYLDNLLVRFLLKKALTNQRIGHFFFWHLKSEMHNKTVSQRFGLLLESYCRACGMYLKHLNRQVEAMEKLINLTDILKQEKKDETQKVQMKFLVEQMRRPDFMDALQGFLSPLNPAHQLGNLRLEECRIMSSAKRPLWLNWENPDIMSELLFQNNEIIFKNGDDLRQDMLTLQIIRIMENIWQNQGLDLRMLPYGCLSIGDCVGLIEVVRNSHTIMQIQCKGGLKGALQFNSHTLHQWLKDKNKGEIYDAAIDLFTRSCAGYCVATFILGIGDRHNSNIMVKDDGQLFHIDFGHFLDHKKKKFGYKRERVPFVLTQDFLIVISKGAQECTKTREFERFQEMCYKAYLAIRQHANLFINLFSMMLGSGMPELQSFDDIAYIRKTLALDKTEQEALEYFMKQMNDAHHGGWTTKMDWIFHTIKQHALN
Chain of PI3Kalpha (P27986 whole entry partner, canonical isoform): as the sequence (P27986 whole entry partner, canonical isoform) above

Regarding `CCn1c(-c2cnc(C)nc2)nc2c(-c3ccc4c(c3)C(C)(C3CCOCC3)C(=O)N4)ncnc21` (single isomer, unassigned) [Compound 1-35, 5-(9-Ethyl-8-(2-methylpyrimidin-5-yl)-9H-purin-6-yl)-3-methyl-3-(tetrahydro-2H-pyran-4-yl)indolin-2-one], the IC50 (in general, the concentration at which inhibition is half-maximal) on PI3Kdelta came to 5 nM. Also, the “Relative Selectivity versus PI3Kalpha” value on PI3Kalpha is recorded as >10.

Regarding `CCn1c(-c2cnc(C)nc2)nc2c(-c3ccc4c(c3)C(C)(NC[C@@H]3CCCO3)C(=O)N4)ncnc21` (mixture of isomers) [Compound 2-21, 5-[9-ethyl-8-(2-methylpyrimidin-5-yl)-9H-purin-6-yl]-3(R and S)-methyl-3-{[(2S)-tetrahydrofuran-2-ylmethyl]amino}-1,3-dihydro-2H-indol-2-one], the IC50 at PI3Kdelta was 22 nM. In addition, the “Relative Selectivity versus PI3Kalpha” value on PI3Kalpha is on record as >10.

For `CCn1c(-c2cnc(C)nc2)nc2c(-c3ccc4c(c3)C(C)(Cc3ccccc3)C(=O)N4C)ncnc21` (single isomer, unassigned) [Compound 1-20, 3-Benzyl-5-(9-ethyl-8-(2-methylpyrimidin-5-yl)-9H-purin-6-yl)-1,3-dimethylindolin-2-one], the concentration for half-maximal inhibition (IC50) at PI3Kdelta was 477 nM. Moreover, the “Relative Selectivity versus PI3Kalpha” value on PI3Kalpha is on record as 3.

As to `CCn1c(-c2cnc(C)nc2)nc2c(-c3ccc4c(c3)C(C)(NC(C)C)C(=O)N4)ncnc21` (single isomer, unassigned) [Compound 2-31, (R or S)-5-[9-ethyl-8-(2-methylpyrimidin-5-yl)-9H-purin-6-yl]-3-methyl-3-[(1-methylethyl)amino]-1,3-dihydro-2H-indol-2-one], the half-inhibitory concentration (IC50) at PI3Kdelta stood at 479 nM. In addition, the “Relative Selectivity versus PI3Kalpha” value on PI3Kalpha is >10.

As for `CCn1c(-c2cnc(C)nc2)nc2c(-c3ccc4c(c3)C(C)(N3C[C@@H](F)[C@H](F)C3)C(=O)N4)ncnc21` (single isomer, unassigned) [Compound 2-62, 3-(R or S)-((3R,4R)-3,4-difluoropyrrolidin-1-yl)-5-(9-ethyl-8-(2-methylpyrimidin-5-yl)-9H-purin-6-yl)-3-methylindolin-2-one], on PI3Kdelta, the IC50 came out at 6 nM. Besides, the “Relative Selectivity versus PI3Kalpha” value on PI3Kalpha is reported as >10.

In the case of `CCn1c(-c2cnc(C)nc2)nc2c(-c3ccc4c(c3)C(C)(N[C@H]3C[C@H](OC)C3)C(=O)N4)ncnc21` (single isomer, unassigned) [Compound 2-83, 5-(9-ethyl-8-(2-methylpyrimidin-5-yl)-9H-purin-6-yl)-3-(((1R,3R)-3-methoxycyclobutyl)amino)-3(R or S)-methylindolin-2-one], the IC50 at PI3Kdelta amounted to 21 nM. In addition, the “Relative Selectivity versus PI3Kalpha” value on PI3Kalpha is >10.

As for `CCn1c(-c2cnc(C)nc2)nc2c(-c3ccc4c(c3)C(C)(N3CC5(CCO5)C3)C(=O)N4)ncnc21` (single isomer, unassigned) [Compound 2-7, (R or S)-5-[9-ethyl-8-(2-methylpyrimidin-5-yl)-9H-purin-6-yl]-3-methyl-3-(1-oxa-6-azaspiro[3.3]hept-6-yl)-1,3-dihydro-2H-indol-2-one], the IC50 at PI3Kdelta is 8 nM. Moreover, the “Relative Selectivity versus PI3Kalpha” value on PI3Kalpha is >10.

For the compound `CCn1c(-c2cnc(C)nc2)nc2c(-c3ccc4c(c3)C3(CCN(C(C)C)C3)C(=O)N4)ncnc21` (single isomer, unassigned) [Compound 3-36, (R or S)-5-(9-ethyl-8-(2-methylpyrimidin-5-yl)-9H-purin-6-yl)-1′-isopropylspiro[indoline-3,3′-pyrrolidin]-2-one], the 50% inhibitory concentration (IC50) on PI3Kdelta was 26 nM. Moreover, on PI3Kalpha, the “Relative Selectivity versus PI3Kalpha” value is listed as >10.

`CCn1c(-c2cnc(C)nc2)nc2c(-c3ccc4c(c3)C3(CCCN3)C(=O)N4)ncnc21` (single isomer, unassigned) [Compound 3-33, (R or S)-5-(9-ethyl-8-(2-methylpyrimidin-5-yl)-9H-purin-6-yl)spiro[indoline-3,2′-pyrrolidin]-2-one]: the IC50 on PI3Kdelta amounted to 67 nM. Besides, the “Relative Selectivity versus PI3Kalpha” value at PI3Kalpha is >10.

Turning to `CCn1c(C(F)F)nc2c(-c3ccc4c(c3)C(C)(Cc3ccccc3)C(=O)N4)ncnc21` (single isomer, unassigned) [Compound 1-24, (R or S)-benzyl-5-(8-(difluoromethyl)-9-ethyl-9H-purin-6-yl)-3-methylindolin-2-one], the half-inhibitory concentration (IC50) on PI3Kdelta is 658 nM. In addition, the “Relative Selectivity versus PI3Kalpha” value on PI3Kalpha is given as >10.

As to `CCn1c(-c2cnc(C)nc2)nc2c(-c3ccc4c(c3)C3(CCN(C(C)C)C3)C(=O)N4)ncnc21` (single isomer, unassigned) [Compound 3-35, (R or S)-5-(9-ethyl-8-(2-methylpyrimidin-5-yl)-9H-purin-6-yl)-1′-isopropylspiro[indoline-3,3′-pyrrolidin]-2-one], on PI3Kdelta, the concentration for half-maximal inhibition (IC50) came out at 14 nM. For the same compound, at PI3Kalpha, the “Relative Selectivity versus PI3Kalpha” value is >10.

On to `CCn1c(-c2cnc(C)nc2)nc2c(-c3ccc4c(c3)C(C)(N3CC5(CCOC5)C3)C(=O)N4)ncnc21` (racemic) [Compound 2-28, (R and S)-5-[9-ethyl-8-(2-methylpyrimidin-5-yl)-9H-purin-6-yl]-3-methyl-3-(6-oxa-2-azaspiro[3.4]oct-2-yl)-1,3-dihydro-2H-indol-2-one], for which the IC50 at PI3Kdelta worked out at 49 nM. Further, the “Relative Selectivity versus PI3Kalpha” value at PI3Kalpha is given as >10.

As for `CCn1c(-c2cnc(C)nc2)nc2c(-c3ccc4c(c3)C(C)(NC(C)C)C(=O)N4)ncnc21` (single isomer, unassigned) [Compound 2-32, (R or S)-5-[9-ethyl-8-(2-methylpyrimidin-5-yl)-9H-purin-6-yl]-3-methyl-3-[(1-methylethyl)amino]-1,3-dihydro-2H-indol-2-one], the IC50 at PI3Kdelta came out at 27 nM. Further, the “Relative Selectivity versus PI3Kalpha” value on PI3Kalpha is >10.

For `Cc1ncc(-c2nc3c(-c4ccc5c(c4)C4(CCCN4C(=O)C4CC4)C(=O)N5CC(C)(C)O)ncnc3n2C)cn1` (single isomer, unassigned) [Compound 3-17, (R or S)-1′-(cyclopropanecarbonyl)-1-(2-hydroxy-2-methylpropyl)-5-(9-methyl-8-(2-methylpyrimidin-5-yl)-9H-purin-6-yl)spiro[indoline-3,2′-pyrrolidin]-2-one], the concentration for half-maximal inhibition (IC50) at PI3Kdelta was 2.5 nM. Also, the “Relative Selectivity versus PI3Kalpha” value at PI3Kalpha was >10.

Turning to `CCn1c(-c2cnc(C)nc2)nc2c(-c3cnc4c(c3)C(C)(N3CC(C)(C#N)C3)C(=O)N4)ncnc21` (single isomer, unassigned) [Compound 2-53, (S or R)-1-(5-(9-ethyl-8-(2-methylpyrimidin-5-yl)-9H-purin-6-yl)-3-methyl-2-oxo-2,3-dihydro-1H-pyrrolo[2,3-b]pyridin-3-yl)-3-methylazetidine-3-carbonitrile], the 50% inhibitory concentration (IC50) on PI3Kdelta stood at 4 nM. For the same compound, at PI3Kalpha, the “Relative Selectivity versus PI3Kalpha” value is >10.

Regarding `CCn1c(-c2cnc(C)nc2)nc2c(-c3ccc4[nH]c(=O)n(C(C)C5CC5)c4c3)ncnc21` (single isomer, unassigned) [Compound 5-7, (R or S)-1-(1-cyclopropylethyl)-6-[9-ethyl-8-(2-methylpyrimidin-5-yl)-9H-purin-6-yl]-1,3-dihydro-2H-benzimidazol-2-one], on PI3Kdelta, the half-maximal inhibitory concentration (IC50) came out at 3 nM. At PI3Kalpha, the “Relative Selectivity versus PI3Kalpha” value was >10.

As for `CCn1c(-c2cnc(C)nc2)nc2c(-c3ccc4c(c3)C(C)(NC3CCOCC3)C(=O)N4)ncnc21` (racemic) [Compound 2-25, (R and S)-5-[9-ethyl-8-(2-methylpyrimidin-5-yl)-9H-purin-6-yl]-3-methyl-3-(tetrahydro-2H-pyran-4-ylamino)-1,3-dihydro-2H-indol-2-one], the IC50 at PI3Kdelta came to 28 nM. The “Relative Selectivity versus PI3Kalpha” value at PI3Kalpha is >10.

The values are drawn from patent publication US10544147B2, “Purine inhibitors of human phosphatidylinositol 3-kinase delta” (MERCK SHARP & DOHME CORP., priority 2016, dated 2020).
